Assay results: patent US10261017B2, “Methods for detecting and categorizing skin sensitizers” (University of Mississippi, priority 2014, dated 2019)
Values joined by “and” are separate entries in the source; they are usually repeats but may differ in a detail not shown here. Identical values can stand only once. Like-named read-outs stand apart in the source and are kept apart here. Marks after values point to notes of the source that are not given here. Blank lines part the entries; values can stand above or below the molecule they belong to.

Assays:
[1] = pH 10
[2] = cited from earlier work
thiol peptide [3] = details: cited from earlier work
[4] = system: ARE-dependent gene activity in a recombinant cell line; details: cited from earlier work
thiol peptide [5] = assay: Cys-DPRA (Direct Peptide Reactivity Assay), literature data; details: for Cys-DPRA binary classification: FN: false negative; for Cys-DPRA binary classification: FP: false positive; for Cys-DPRA binary classification: TN: true negative; for Cys-DPRA binary classification: TP: true positive
[6] = Fluorescent response of DCYA in acetonitrile over time; assay type: physicochemical; details: micromolar solutions, after 3 h at room temperature
Description: The fluorescent responses of DCYA and DCYA disulfide in ACN were investigated at different concentrations using 1-300 μL/well in a 96 microplate reader at room temperature. Pure acetonitrile was used as a solvent control. The optimum excitation and emission wavelength combination was determined by performing excitation and emission scans. […] At these wavelengths, no solvent interference was observed. […] A linear response for DCYA was observed between 5-80 μM ([…]) concentrations with a R^2=0.995.

[7] = NMR method: depletion of electrophile signal on reaction with DCYA
Excerpt: The described example can be applied to pure chemicals and mixtures. The method includes the acquisition of at least one NMR spectrum, mixing an electrophile and a nucleophile to acquire an array of control spectra and an addition of catalyst to record an array of reaction spectra. It also includes the quantification of at least one signal and the comparison of the signal with a control and the classification of the reaction based on the depletion of potential sensitizer based on the quantified residual signal.
2,5-Dimethylfuran was used as internal standard. When necessary, characterization of the product(s) formed during the reaction(s) was performed by homonuclear ^1H connectivities using 2D-COSY experiments. […] Two- and three bond ^1H-^13C connectivities were determined by gradient-HMBC experiments in which the evolution period for long-range ^1H-^13C coupling constants was optimized for a ^2,3JC,H of 8 Hz. Through-space ^1H connectivities were determined using a NOESY experiment with a mixing time of 0.450 s. […] Toronto, Canada].
In a 3 mm NMR tube, 1 volume of DCYA (100) mM in CDCl3) was mixed with one volume of sensitizer (100 mM in CDCl3) to give a final concentration of 50 mM for both DCYA and the sensitizer. Control ^1H NMR spectra (reference spectra) were recorded at regular intervals of for a minimum of 5 min. […] All spectra were recorded at constant temperature. All experiments were conducted using the manufacturer's standard presaturation pulse programs and experimental conditions were chosen as explained in NMR spectroscopy section. The progress of the reaction was followed by the diminished peak areas of the resonances for the signal of interest. The spectra were phased, referenced, and integrated using NMR data elaboration software. The structural characterizations of the resulting adducts were confirmed by conducting additional 2D-NMR experiments when necessary.
Covalent reaction of DCYA with carvone is dependent on the activation of the nucleophilic group (ex. sulfhydryl group to the reactive thio-anion) under basic conditions. This reaction is strongly dependent on the nature of the nucleophile and may be modulated by careful choice of the model nucleophile and the reaction conditions.
The control spectra are used as reference spectra (FIG. 3A). All the spectra were subjected to automatic phase and baseline correction using a Bernstein polynomial fit (order 3). After these two steps, all the spectra were integrated over the areas of interest. […] Both vinylic and adduct peak areas were normalized relative to the internal standard signal peaks. […] The concentrations of both electrophile and adduct were then plotted as percentage against time (in minutes). (FIG. 5).

thiol peptide [8] = system: thiol peptide
[9] = cited from earlier work; remark: listed apart in the source
[10] = Microplate spectrophotometric method (DCYA assay), fluorescence end-point; details: for DCYA 100-RI: RI = reactivity index, 2 equiv. electrophile, pH 10 buffer; for DCYA binary classification: FN: false negative; for DCYA binary classification: FP: false positive; for DCYA assay reactivity / classification in words: microplate spectrophotometric method; for DCYA binary classification: TN: true negative; for DCYA binary classification: TP: true positive, positive if 100-RI <95; for Fluorescence response, Reaction (R), average of 9 readings: DCYA + test article + pH 10 buffer + resin
[11] = TLC monitoring of DCYA reactions with electrophiles; details: pH 10 buffer, 1-2.5 equiv. electrophile
Description: For visualization purposes, the controls, blank and reactions were monitored by TLC on silica gel plates. A known volume of each sample was loaded on a silica gel plate and eluted with appropriate solvent system. The TLC plates were examined λ366 for the presence of the yellow fluorescence spots corresponding DCYA, its dimer or possible reaction products.
In order to minimize the competition between auto-dimerization [(DCYA)2] and nucleophilic addition, the reaction time and the electrophile:nucleophile stoichiometry were optimized. Massoia lactone at different concentrations was used to monitor the progress of the reaction by TLC (FIG. 11). […] In order to adequately discriminate between compounds with variable electrophilic strength, the assay was optimized using 2 equivalents of electrophile.

[12] = reported results from the literature
[13] = conversion of test chemical at 90 min, 1 equiv. DCYA, 0.1 equiv. DBN, CDCl3
[14] = based on depletion of electrophile signal at 30 min

DCYA 100-RI ([1]; 2.1 mM): 16.4
DCYA binary classification: FN ([1]; 2.1 mM): 0
DCYA binary classification: FP ([1]; 2.1 mM): 0
DCYA binary classification: TN ([1]; 2.1 mM): 0
DCYA binary classification: TP ([1]; 2.1 mM): 1
Cys-DPRA binary classification: FN (thiol peptide [5]): 0
Cys-DPRA binary classification: FP (thiol peptide [5]): 0
Cys-DPRA binary classification: TN (thiol peptide [5]): 0
Cys-DPRA binary classification: TP (thiol peptide [5]): 1
Structure (SMILES): Cn1sccc1=O [2-Methyl-4-isothiazolin-3-one]
LLNA EC3 ([2]; reported results (Table 7)): 1.9%
Cys-DPRA % Pept. remain. (thiol peptide [3]; [12]): 2.1%
KeratinoSens ™ EC3 ([4]; reported results (Table 7)): 29.56 µM

Loss of fluorescence response [6]: 1.5-3.0%
Structure (SMILES): CN(C)c1cccc2c(S(=O)(=O)NCCS)cccc12 [DCYA, 5-(dimethylamino)-N-(2-mercaptoethyl)naphthalene-1-sulfonamide]

Structure (SMILES): O=CC=Cc1ccccc1 [Cinnamaldehyde]
NMR Classification [7]: Moderate
NMR assay reactivity / classification in words [7]: moderate sensitizer
Conversion at t30 (depletion of electrophile signal) ([7]; at 30 min, 1 equiv. DCYA): 50%
NMR Method conversion [7, 13]: 50%
DCYA 100-RI ([1]; 2.1 mM): 85.1
DCYA binary classification: FN ([1]; 2.1 mM): 0
DCYA binary classification: FP ([1]; 2.1 mM): 0
DCYA binary classification: TN ([1]; 2.1 mM): 0
DCYA binary classification: TP ([1]; 2.1 mM): 1
Cys-DPRA binary classification: FN (thiol peptide [8]): 0
Cys-DPRA binary classification: FP (thiol peptide [8]): 0
Cys-DPRA binary classification: TN (thiol peptide [8]): 0
Cys-DPRA binary classification: TP (thiol peptide [8]): 1
LLNA (EC3) ([2]; mouse, in vivo): 3%
LLNA Classification ([2]; mouse, in vivo): Moderate
LLNA EC3 ([2]; mouse, in vivo): 3%
Cys-DPRA % Pept. remain. (thiol peptide [3]): 29.4%
Cys-DPRA, percentage of thiol peptide depleted (thiol peptide [3]): 70.6%
KeratinoSens ™ EC3 [4]: 63.94 µM

NMR Classification [7]: Strong
NMR Method conversion ([7]; 10 min, 50 mM): >97* %
Conversion at t30 (depletion of electrophile signal) ([7]; 30 min, 50 mM): 97%
DCYA 100-RI [10]: −8.5
DCYA binary classification: FN [10]: 0
DCYA binary classification: FP [10]: 0
DCYA assay reactivity / classification in words [10]: strongly reactive
DCYA binary classification: TN [10]: 0
DCYA binary classification: TP [10]: 1
Structure (SMILES): C=C1C(=O)O[C@@H]2/C=C(\C)CC/C=C(\C)CC[C@@H]12 [Costunolide]
Result in human patch tests ([9]; reported in literature): Positive in human patch tests^6
DCYA assay reactivity / classification in words ([10]; listed as costunolide): strong sensitizers

Structure (SMILES): CCCCC[C@@H]1CC=CC(=O)O1 [Massoia lactone]
NMR assay reactivity / classification in words [7]: moderate to strong skin sensitizer
Conversion at t30 (depletion of electrophile signal) ([7]; at 30 min, 1 equiv. DCYA, listed as Massoialactone): 59%
Conversion at t30 (depletion of electrophile signal) ([7]; at 30 min, 1 equiv. DCYA, listed as massoia lactone): 60%
NMR Classification [7, 14]: Moderate-strong
NMR Method conversion [7, 13]: 66%
TLC: adduct formation with DCYA [11]: only a partial reaction was achieved
Fluorescence response, Reaction (R), average of 9 readings ([10]; listed as ML): 6064.127 RFU and 6064 RFU
DCYA 100-RI [10]: 12.8

NMR assay reactivity / classification in words [7]: almost unreactive
Conversion at t30 (depletion of electrophile signal) ([7]; 30 min, 50 mM): 0%
NMR Method conversion ([7]; 90 min, 50 mM): 0%
NMR Classification [7, 14]: Non
Cys-DPRA binary classification: FN (thiol peptide [8]): 0
Cys-DPRA binary classification: FP (thiol peptide [5]): 0
Cys-DPRA binary classification: TN (thiol peptide [5]): 1
Cys-DPRA binary classification: TP (thiol peptide [5]): 0
Fluorescence response, Reaction (R), average of 9 readings [10]: 1996.775 RFU
DCYA 100-RI [10]: 97.2
DCYA binary classification: FN [10]: 0
DCYA binary classification: FP [10]: 0
DCYA binary classification: TN [10]: 1
DCYA binary classification: TP [10]: 0
Structure (SMILES): O=c1ccc2ccccc2o1 [Coumarin]

Conversion at t30 (depletion of electrophile signal) [7]: 99%
NMR Classification [7]: Strong
NMR Method conversion [7]: >99* %
DCYA 100-RI [1]: −6.7
Structure (SMILES): C=C1C(=O)O[C@@H]2C[C@@]3(C)CCC[C@H](C)C3=C[C@H]12 [Alantolactone]
Result in human patch tests ([9]; in vivo): Positive in human patch tests^6

DCYA 100-RI [1]: 91.1
Cys-DPRA binary classification: FN (thiol peptide [8]): 0
Cys-DPRA binary classification: FP (thiol peptide [8]): 0
Cys-DPRA binary classification: TN (thiol peptide [8]): 0
Cys-DPRA binary classification: TP (thiol peptide [8]): 1
Structure (SMILES): O=c1c(O)c(O)c1=O [Squaric acid]
LLNA EC3 ([2]; mouse, in vivo): 4.3%
Cys-DPRA % Pept. remain. (thiol peptide [3]): 53.1%
KeratinoSens ™ EC3 [4]: >2000 µM

Structure (SMILES): OCCc1ccc(O)c(O)c1 [3-Hydroxytyrosol]
NMR Classification [7]: Non^$
NMR assay reactivity / classification in words [7]: almost unreactive
Conversion at t30 (depletion of electrophile signal) ([7]; at 30 min, 1 equiv. DCYA): 6%
NMR Method conversion [7, 13]: 6%
DCYA 100-RI ([1]; 2.1 mM): 97.2
LLNA (EC3) ([2]; mouse, in vivo): 0.6%
LLNA Classification ([2]; mouse, in vivo): Strong
LLNA EC3 ([2]; mouse, in vivo): 0.6%
Cys-DPRA reactivity in words (thiol peptide [3]): non-reactive

Structure (SMILES): C=C(C)C1CC=C(C=O)CC1 (centres unmarked) [Perillaldehyde]
NMR assay reactivity / classification in words [7]: moderate/low electrophilic behavior
Conversion at t30 (depletion of electrophile signal) ([7]; at 30 min, 1 equiv. DCYA): 28%
NMR Classification [7, 14]: Weak-moderate
NMR Method conversion [7, 13]: 28%
LLNA (EC3) ([2]; effective concentration, published literature (Table 1)): 8.1%
LLNA Classification ([2]; published literature): Moderate
LLNA EC3 ([2]; reported results (Table 7)): 8.1%
Cys-DPRA, percentage of thiol peptide depleted (thiol peptide [3]; adopted from the literature): 31.9%
Cys-DPRA % Pept. remain. (thiol peptide [3]; [12]): 68.1%
KeratinoSens ™ EC3 ([4]; published literature (Table 1)): 61.85 µM
KeratinoSens ™ EC3 ([4]; reported results (Table 7)): 61.85 µM
Cys-DPRA binary classification: FN (thiol peptide [5]): 0
Cys-DPRA binary classification: FP (thiol peptide [5]): 0
Cys-DPRA binary classification: TN (thiol peptide [5]): 0
Cys-DPRA binary classification: TP (thiol peptide [5]): 1
DCYA 100-RI [10]: 95.8
DCYA binary classification: FN [10]: 1
DCYA binary classification: FP [10]: 0
DCYA binary classification: TN [10]: 0
DCYA binary classification: TP [10]: 0
